Experimental findings from patent publication US10570168B2, “2′ and/or 5′ amino-acid ester phosphoramidate 3′-deoxy adenosine derivatives as anti- cancer compounds” (NuCana plc, priority 2014, dated 2020) are described below.

The subject of one series is KG1a cells. In words: Annexin V/propidium iodide in vitro apoptosis assay (LD50). The following applies: 72 h. Type of series: cell-based.
Series [1] deals with CCRF-CEM (TdT positive CEM). In words: ATP (ViaLight plus) cytotoxicity assay. It is filed as cell-based, Human. The following applies: for IC50: Homo sapiens, CCRF-CEM. Here is the method:
Certain compounds of the invention were subjected to further studies to test the cytotoxic activity of certain compounds of the invention and also to measure their activity against 4 haematological cancer cell lines • TdT positive CEM (Human ALL) • TdT negative K562 (Human CML) • TdT negative H1-60 (Human ANLL) • RL (CRL-2261) non-HD lymphoma • The concentrations of the active metabolite dATP (Cordycepin triphosphate) in these cell lines was also measured. • The cytotoxic activity and the intracellular 3′-dATP concentrations were also studied in the presence of hENT1, Adenosine Kinase (AK) and Adenosine Deaminase pharmacological inhibitors in CEM and RL cancer cell lines. Said inhibitors that mimic known cancer resistance mechanisms. Methods Cell Culture
HL-60 (ATCC® CCL-240™), K562 (ATCC® CCL-243™), CCRF-CEM (ATCC® CRM-CCL-119™) and RL (ATCC® CRL-2261™) leukaemia cell lines, obtained from the American Type Culture Collection (ATCC), Middlesex. HL-60 and K562 cell lines are deoxynucleotidyl transferase-negative (TdT-ve), whereas CCRF-CEM cell line is TdT+ve.
HL-60, K562, CCRF-CEM and RL cell lines were cultured in RPMI-1640 medium (Sigma Aldrich, UK), which were supplemented with 10% Fetal Bovine Serum (FBS) (PAA Laboratories), 1% amphotericin B (5.5 ml) and 1% penicillin/streptomycin (5.5 ml) (PAA Laboratories) and grown in flasks at 37° C. incubator with 5% CO2.
The amount of ATP was used as a measurement of cell number and cell viability. ATP ViaLight™ plus assay kit (Lonza, USA: Product No. LT07-121) to detect ATP in cells treated in luminescence compatible 96 well plates (initial concentration of cells was 1×10^4 cells/well) with cordycepin and ProTides at concentrations of: 0, 0.1, 0.5, 1, 5 and 10 μM, followed by incubation for 72 hours at 37° C. incubator with 5% CO2. For inhibitor studies, 10 μM of NBTI or 1 μM EHNA or A-134974 was added and left for 5 minutes before adding the drugs (see section 5 for inhibitor details).
After incubation, 50 μl of cell lysis reagent was added to the 96 well plates to release the intracellular ATP, followed by 100 μl of ATP monitoring reagent (AMR). The luminescent values of each well were determined using FLUOstar OPTIMA microplate reader (BMG Labtech) which convert ATP into light by using luciferase enzyme. Therefore, the amount of luminescence produced was directly proportional to the amount of ATP.
Cell lines were treated in the same way as described above but before treatment with drugs, a number of inhibitors were added: • 1) Nitrobenzylthioinosine (NBTI) (Sigma-Aldrich, St. Louis, Mo., product # N2255) blocks nucleoside transporters • 2) EHNA hydrochloride (Sigma-Aldrich, St. Louis, Mo., product # E114) blocks adenosine deaminase • 3) Adenosine kinase inhibitor A-134974 dihydrochloride hydrate (Sigma-Aldrich, St. Louis, Mo., product # A2846): blocks adenosine kinase
The dose-response curves of cytotoxicity of the drugs was determined using non-linear regression analysis of percentage cell viability versus concentration and EC50 values were obtained. The intracellular assay was conducted in five replicates for each condition. Intracellular assay was determined using paired t test (two-tailed) analysis of 3′ATP/ATP concentration and p-values were obtained. For all the analysis, Prism Software program (GraphPad Software) was used and Microsoft Powerpoint® 2013 was used to plot the results.

In series [2] the test system is leukaemic stem cell (LSC) compartment within the KG1a cell line. The series is described as follows: Immunophenotypic identification of the leukaemic stem cell compartment. It is filed as cell-based. The following applies: 72 h. The protocol: KG1a cells were cultured for 72 h in the presence of a wide range of concentrations of each compound assayed. Cells were then harvested and labelled with a cocktail of anti-lineage antibodies (PE-cy7), anti-CD34 (FITC), anti-CD38 (PE) and anti-CD123 (PERCP cy5). The sub-population expressing a LSC phenotype were subsequently identified and were expressed as a percentage of all viable cells left in the culture. The percentages of stem cells remaining were then plotted on a dose-response graph and the effects of the compounds were compared with each other, and with the parent nucleoside.
The data obtained in these experiments were evaluated using one way ANOVA. All data was confirmed as Gaussian or a Gaussian approximation using the omnibus K2 test. LD50 values were calculated from the non-linear regression and line of best-fit analysis of the sigmoidal dose-response curves. All statistical analyses were performed using Graphpad Prism 6.0 software (Graphpad Software Inc., San Diego, Calif.).

Where [3] appears, read: CEM, with AK (adenosine kinase inhibitor A-134974, 1 μM).
Where [4] appears, read: CEM, with EHNA 1 μM (adenosine deaminase blocker).
[5] abbreviates: CEM, with NBTI 10 μM (nucleoside transporter blocker).

Like-named read-outs stand apart in the source and are kept apart here.

Method for KG1a cells: The KG1a cell line was maintained in RPMI medium (Invitrogen, Paisley, UK) supplemented with 100 units/ml penicillin, 100 μg/ml streptomycin and 20% foetal calf serum. Cells were subsequently aliquoted (10^5 cells/100 μl) into 96-well plates and were incubated at 37° C. in a humidified 5% carbon dioxide atmosphere for 72 h in the presence of nucleoside analogues and their respective proTides at concentrations that were experimentally determined for each series of compounds. In addition, control cultures were carried out to which no drug was added. Cells were subsequently harvested by centrifugation and were analyzed by flow cytometry using the Annexin V assay.
Cultured cells were harvested by centrifugation and then resuspended in 195 μl of calcium-rich buffer. Subsequently, 5 μl of Annexin V (Caltag Medsystems, Botolph Claydon, UK) was added to the cell suspension and cells were incubated in the dark for 10 mins prior to washing. Cells were finally resuspended in 190 μl of calcium-rich buffer together with 10 μl of propidium iodide. Apoptosis was assessed by dual-colour immunofluorescent flow cytometry as described previously.
The data obtained in these experiments were evaluated using one way ANOVA. […] LD50 values were calculated from the non-linear regression and line of best-fit analysis of the sigmoidal dose-response curves. […]

On to `C[C@H](NP(=O)(OC[C@@H]1CC(O)[C@H](n2cnc3c(N)ncnc32)O1)Oc1ccccc1)C(=O)OCc1ccccc1` (stereo partly drawn) [Compound A, 3′-deoxyadenosine-5′-O-[phenyl(benzyloxy-L-alaninyl)] phosphate], for which the “in vitro drug sensitivity / potency (LD50 comparison, FIG. 1)” value with KG1a cells is reported as “increased in vitro potency when compared to Cordycepin”. The “(FD) fold difference compared to Cordycepin = Cordycepin IC50/ProTide IC50” value in series [1] (CEM (TdT+ve)) is “(22)”. For the same molecule, the “(FD) fold difference compared to control” value is recorded as “(3)” in series [1] (CEM, IC50 with AK inhibitor); “(2.2)” in series [1] (CEM, IC50 with EHNA); “(1)” in series [1] (CEM, IC50 with NBTI). In addition, the IC50 (commonly the midpoint of a concentration-inhibition curve) was 0.87 µM in series [1] (72 h, CEM (TdT+ve), 72 hours); 1.4 µM in series [1] (CEM, Control (no inhibitor)); 3.6 µM in series [1] (setting [3]); 3.1 µM in series [1] (setting [4]); 2 µM in series [1] (setting [5]). The “reduction of LSCs as a proportion of the cancer cells in culture (ability to target LSCs)” value in series [2] (Lin−/CD34+/CD38−/CD123+) was “preferentially target cancer stem cells”. In addition, the “LSC targeting compared with the parent nucleoside” value in series [2] (for compound A at 1 mM and above) is recorded as “significantly greater than that of the parent compound”.
Regarding `CCOC(=O)CCc1ccccc1OP(=O)(N[C@@H](C)C(=O)OCc1ccccc1)OC[C@@H]1C[C@@H](O)[C@H](n2cnc3c(N)ncnc32)O1` (stereo partly drawn) [F, (2S)-benzyl 2-(((((2S,4R,5R)-5-(6-amino-9H-purin-9-yl)-4-hydroxytetrahydrofuran-2-yl)methoxy)(2-(3-ethoxy-3-oxopropyl)phenoxy)phosphoryl)amino)propanoate], the “(FD) fold difference compared to Cordycepin = Cordycepin IC50/ProTide IC50” value in series [1] (CEM (TdT+ve)) was “(5)”. Further, the 50% inhibitory concentration (IC50) in series [1] (72 h, CEM (TdT+ve), 72 hours) was determined as 4.3 µM.
As to `C[C@H](NP(=O)(OC[C@@H]1C[C@@H](O)[C@H](n2cnc3c(N)ncnc32)O1)Oc1cccc2ccccc12)C(=O)OCc1ccccc1` (stereo partly drawn) [B, (2S)-benzyl 2-(((((2S,4R,5R)-5-(6-amino-9H-purin-9-yl)-4-hydroxytetrahydrofuran-2-yl)methoxy)(naphthalen-1-yloxy)phosphoryl)amino)propanoate], the “(FD) fold difference compared to control” value in series [1] (CEM, IC50 with AK inhibitor) is recorded as “(1)”; in series [1] (CEM, IC50 with EHNA) it was “(1)”; in series [1] (CEM, IC50 with NBTI) it was “(1)”. The half-inhibitory concentration (IC50) amounted to 0.13 µM in series [1] (72 h, CEM (TdT+ve), 72 hours); 0.9 µM in series [1] (CEM, Control (no inhibitor)); 1.3 µM in series [1] (setting [3]); 1.3 µM in series [1] (setting [4]); 1.4 µM in series [1] (setting [5]).
On to `Nc1ncnc2c1ncn2[C@@H]1O[C@H](CO)C[C@H]1O` [Cordycepin, 3′-deoxyadenosine, reference compound], for which the “(FD) fold difference compared to control” value in series [1] (CEM, IC50 with AK inhibitor) is “(3)”; in series [1] (CEM, IC50 with NBTI) it was “(5)”. Also, the IC50 in series [1] (72 h, CEM (TdT+ve), 72 hours, read-out: IC50) worked out at 19.5 µM; in series [1] (CEM, Control (no inhibitor), read-out: IC50), 11.5 µM; in series [1] (CEM, with AK (adenosine kinase inhibitor A-134974, 1 μM), read-out: IC50), 29.2 µM; in series [1] (CEM, with EHNA 1 μM (adenosine deaminase blocker), read-out: IC50) it was 0.7 µM; in series [1] (CEM, with NBTI 10 μM (nucleoside transporter blocker), read-out: IC50), 57.7 µM.
As to `COC(=O)C(C)(C)NP(=O)(OC[C@@H]1C[C@@H](O)[C@H](n2cnc3c(N)ncnc32)O1)Oc1cccc2ccccc12` (stereo partly drawn) [E, Methyl 2-(((((2S,4R,5R)-5-(6-amino-9H-purin-9-yl)-4-hydroxytetrahydrofuran-2-yl)-methoxy)(naphthalen-1-yloxy)phosphoryl)amino)-2-methylpropanoate], the “(FD) fold difference compared to Cordycepin = Cordycepin IC50/ProTide IC50” value in series [1] (CEM (TdT+ve)) was “(2)”. Further, the “(FD) fold difference compared to control” value was “(1)” in series [1] (CEM, IC50 with AK inhibitor); “(1)” in series [1] (CEM, IC50 with EHNA); “(2)” in series [1] (CEM, IC50 with NBTI). Also, the IC50 in series [1] (72 h, CEM (TdT+ve), 72 hours) worked out at 10 µM; in series [1] (CEM, Control (no inhibitor)), 9.9 µM; in series [1] (setting [3]), 10.3 µM; in series [1] (setting [4]), 13.4 µM; in series [1] (setting [5]), 17.1 µM.
